Measurements from the supplement of paper PMC11208160.

Assay: recombinant barcode read abundance after kanamycin selection (control-corrected) (log10(CPM+1)); higher = more efficient recombination; sequences stand for … in AGTGCAGAGAAAATCGGCCAGTTTTCTCTGCCTGCAGTCCGCATGCCGT…AGATTTATGCAGCGGACTGCCTTTCTCCCAAAGTGATAAACCGGACAGTATCATGGACCGGTTTTCCCGGTAATCCGTATTTGCAAGGTTGGTTTCACT; site = the 11-nt target
Outline: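 Recombination efficiency comes from barcode counts at recombinant junctions, converted to counts per million, averaged and corrected against the control. Values appear as log10(CPM+1). They were obtained from a pooled E. coli screen in which each oligo paired a target with an IS621 bridge RNA target-binding loop, and cells were plated in duplicate on chloramphenicol/ampicillin LB agar or on chloramphenicol/ampicillin/kanamycin with 0.1 mM IPTG.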
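Further: IS621 recombinase and bridge RNA in Escherichia coli cells.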

Row | Sequence | recombinant barcode read abundance (log10)
1 | GGAGCGTCTTGGGTTCTAACCTGTTGCGT (site GGCGCGTCTAT) | 0.299
2 | GGAGGGGCTTGGGTTCTAACCTGTTGCCT (site GGAGGGGCTAG) | 1.75
3 | GGAGGGGCTTGGGTTCTAACCTGTTGCCT (site TGAGGTGCTAG) | 0.0107
4 | GGAGTGACTTGGGTTCTAACCTGTTGCTT (site GGAGTGACTAA) | 0.979
5 | GGAGTGACTTGGGTTCTAACCTGTTGCTT (site GGAGTGACTTA) | 0.176
6 | GGATAGACTTGGGTTCTAACCTGTTGCGT (site GGATACACTAC) | 0.107
7 | GGATAGACTTGGGTTCTAACCTGTTGCGT (site GGATAGACTAC) | 1.95
8 | GGATAGCCTTGGGTTCTAACCTGTTGCCT (site AGATAGCCTAG) | 0.902
9 | GGATAGCCTTGGGTTCTAACCTGTTGCCT (site CGATAGCCTAG) | 0.0205
10 | GGATAGCCTTGGGTTCTAACCTGTTGCCT (site GGATAGCCTAG) | 1.71
11 | GGATAGCCTTGGGTTCTAACCTGTTGCCT (site TGATAGCCTAG) | 0.239
12 | GGATATCCTTGGGTTCTAACCTGTTGCCT (site GGATATCCTAG) | 0.645
13 | GGATATCCTTGGGTTCTAACCTGTTGCCT (site TGAAATCCTAG) | 0.114
14 | GGATCGTCTTGGGTTCTAACCTGTTGCCT (site GGATCGTCTAG) | 1.44
15 | GGATCGTCTTGGGTTCTAACCTGTTGCCT (site GGTTCCTCTAG) | 0.0567
16 | GGATTCTCTTGGGTTCTAACCTGTTGCCT (site GGACTCACTAG) | 0.0575
17 | GGATTCTCTTGGGTTCTAACCTGTTGCCT (site GGATTCTCTAG) | 1.83
18 | GGCAAGGCTTGGGTTCTAACCTGTTGCCT (site ACGGGTCCTCT) | 0.417
19 | GGCAAGGCTTGGGTTCTAACCTGTTGCCT (site GGCAAGGCTAG) | 0.0617
20 | GGCACCACTTGGGTTCTAACCTGTTGCGT (site GGCACCACTAC) | 1.58
21 | GGCACCACTTGGGTTCTAACCTGTTGCGT (site GGCACTACTAC) | 0.108
22 | GGCACTACTTGGGTTCTAACCTGTTGCGT (site GGCACCACTAC) | 0.661

Row | Sequence | recombinant barcode read abundance (log10)
23 | GGCACTACTTGGGTTCTAACCTGTTGCGT (site GGCACTACTAC) | 0.28
24 | GGCACTTCTTGGGTTCTAACCTGTTGCCT (site GGCACTTCTAG) | 0.188
25 | GGCACTTCTTGGGTTCTAACCTGTTGCCT (site GGCTCTTCTAG) | 0.136
26 | GGCATGTCTTGGGTTCTAACCTGTTGCCT (site GGCATGTCTAG) | 1.15
27 | GGCATGTCTTGGGTTCTAACCTGTTGCCT (site GGCTTGTCTAG) | 0.0534
28 | GGCCCGCCTTGGGTTCTAACCTGTTGCCT (site AGCCCGCCTAG) | 0.0411
29 | GGCCCGCCTTGGGTTCTAACCTGTTGCCT (site CGCCCGCCTAG) | 0.00686
30 | GGCCCGCCTTGGGTTCTAACCTGTTGCCT (site GGCCCGCCTAG) | 0.734
31 | GGCCCGCCTTGGGTTCTAACCTGTTGCCT (site TGCCCGCCTAG) | 0.0746
32 | GGCGATCCTTGGGTTCTAACCTGTTGCCT (site GACGATCCTAG) | 0.151
33 | GGCGATCCTTGGGTTCTAACCTGTTGCCT (site GCCGATCCTAG) | 0.213
34 | GGCGATCCTTGGGTTCTAACCTGTTGCCT (site GGCGATCCTAG) | 1.15
35 | GGCGATCCTTGGGTTCTAACCTGTTGCCT (site GTCGATCCTAG) | 0.059
36 | GGCGCGTCTTGGGTTCTAACCTGTTGCAT (site GGAGCGTCTAC) | 0.0291
37 | GGCGCGTCTTGGGTTCTAACCTGTTGCAT (site GGCGCGTCTAT) | 0.589
38 | GGCGGCCCTTGGGTTCTAACCTGTTGCGG (site GACTGCCCTCC) | 0.103
39 | GGCGGCCCTTGGGTTCTAACCTGTTGCGG (site GGCGGCCCTCC) | 2.31
40 | GGCGTGCCTTGGGTTCTAACCTGTTGCGT (site AAGAACTCTTG) | 0.0755
41 | GGCGTGCCTTGGGTTCTAACCTGTTGCGT (site GGCGTGCCTAC) | 2.95
42 | GGCGTGTCTTGGGTTCTAACCTGTTGCGG (site GACGTGTCTCG) | 0.125
43 | GGCGTGTCTTGGGTTCTAACCTGTTGCGG (site GGCGTGTCTCC) | 2.07
44 | GGCTAGTCTTGGGTTCTAACCTGTTGCTT (site GGATTGTCTAA) | 0.109

Row | Sequence | recombinant barcode read abundance (log10)
45 | GGCTAGTCTTGGGTTCTAACCTGTTGCTT (site GGCTAGTCTAA) | 0.561
46 | GGCTCTACTTGGGTTCTAACCTGTTGCGG (site GGCTAGACTCC) | 0.0656
47 | GGCTCTACTTGGGTTCTAACCTGTTGCGG (site GGCTCTACTCC) | 0.326
48 | GGCTCTTCTTGGGTTCTAACCTGTTGCCT (site GGCACTTCTAG) | 0.221
49 | GGCTCTTCTTGGGTTCTAACCTGTTGCCT (site GGCTCTTCTAG) | 0.332
50 | GGCTGTCCTTGGGTTCTAACCTGTTGCGT (site CTAAAAGCTTT) | 0.0937
51 | GGCTGTCCTTGGGTTCTAACCTGTTGCGT (site GGCTGTCCTAC) | 0.751
52 | GGGAACCCTTGGGTTCTAACCTGTTGCTG (site GGGAACCCTAA) | 0.0418
53 | GGGAACCCTTGGGTTCTAACCTGTTGCTG (site GGGAACCCTCA) | 1.5
54 | GGGAACCCTTGGGTTCTAACCTGTTGCTG (site GGGAACCCTGA) | 0.0561
55 | GGGAACCCTTGGGTTCTAACCTGTTGCTG (site GGGAACCCTTA) | 0.867
56 | GGGACAACTTGGGTTCTAACCTGTTGCCT (site GGGACAACTAG) | 0.0953
57 | GGGACAACTTGGGTTCTAACCTGTTGCCT (site GGGGTAACTAG) | 0.0828
58 | GGGACTACTTGGGTTCTAACCTGTTGCGG (site CGGGCTACTCC) | 0.0949
59 | GGGACTACTTGGGTTCTAACCTGTTGCGG (site GGGACTACTCC) | 1.86
60 | GGGACTTCTTGGGTTCTAACCTGTTGCAT (site GGGACTTCTAT) | 0.937
61 | GGGACTTCTTGGGTTCTAACCTGTTGCAT (site GGGCCTTCTAT) | 0.0615
62 | GGGACTTCTTGGGTTCTAACCTGTTGCAT (site GGGGCTTCTAT) | 0.273
63 | GGGACTTCTTGGGTTCTAACCTGTTGCAT (site GGGTCTTCTAT) | 0.164
64 | GGGATGGCTTGGGTTCTAACCTGTTGCCT (site GGGATGGCTAG) | 1.32
65 | GGGATGGCTTGGGTTCTAACCTGTTGCCT (site TGGATGGCTAG) | 0.0489
66 | GGGCAACCTTGGGTTCTAACCTGTTGCGT (site GGGCAACCTAC) | 2.84

Row | Sequence | recombinant barcode read abundance (log10)
67 | GGGCAACCTTGGGTTCTAACCTGTTGCGT (site GGGCAGCCTAG) | 0.117
68 | GGGCACACTTGGGTTCTAACCTGTTGCAC (site CTTGCATCTAG) | 0.244
69 | GGGCACACTTGGGTTCTAACCTGTTGCAC (site GGGCACACTGT) | 2.52
70 | GGGCACACTTGGGTTCTAACCTGTTGCCA (site GGGAACACTTG) | 0.193
71 | GGGCACACTTGGGTTCTAACCTGTTGCCA (site GGGCACACTTG) | 0.698
72 | GGGCATCCTTGGGTTCTAACCTGTTGCAT (site GGGCATCCTAT) | 1.82
73 | GGGCATCCTTGGGTTCTAACCTGTTGCAT (site TCATTAGCTCG) | 0.246
74 | GGGCCCGCTTGGGTTCTAACCTGTTGCGG (site GGACGCGCTCC) | 0.111
75 | GGGCCCGCTTGGGTTCTAACCTGTTGCGG (site GGGCCCGCTCC) | 1.29
76 | GGGCCTACTTGGGTTCTAACCTGTTGCTA (site GGGCCTACTAA) | 0.0406
77 | GGGCCTACTTGGGTTCTAACCTGTTGCTA (site GGGCCTACTCA) | 0.642
78 | GGGCCTACTTGGGTTCTAACCTGTTGCTA (site GGGCCTACTGA) | 0.482
79 | GGGCCTACTTGGGTTCTAACCTGTTGCTA (site GGGCCTACTTA) | 1.36
80 | GGGCCTACTTGGGTTCTAACCTGTTGCTG (site GGGCCTACTAA) | 0.165
81 | GGGCCTACTTGGGTTCTAACCTGTTGCTG (site GGGCCTACTCA) | 2.06
82 | GGGCCTACTTGGGTTCTAACCTGTTGCTG (site GGGCCTACTGA) | 0.215
83 | GGGCCTACTTGGGTTCTAACCTGTTGCTG (site GGGCCTACTTA) | 0.121
84 | GGGGAATCTTGGGTTCTAACCTGTTGCAT (site GGGGAATCTAT) | 1.96
85 | GGGGAATCTTGGGTTCTAACCTGTTGCAT (site GGGGACTCTGT) | 0.079
86 | GGGGACTCTTGGGTTCTAACCTGTTGCAC (site GGGGAATCTAT) | 0.0994
